Test results: the supplement of paper PMC11451515

Tested on: P12-Ichikawa
Assay: cell viability relative to DMSO control; higher = less cytotoxic
Conditions: 48 h
Procedure, shortened: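 NOMO1 or SEM (500 cells/well) or P12-Ichikawa (1000 cells/well) leukemia cells were adapted for at least four passages in each medium. They were seeded in 1536-well plates (5 μl) and pin-dosed with library compounds in DMSO over an 11-point threefold series, 47 μM to 0.79 nM. CellTiter-Glo One luminescence was read after 48 h at 37°C. Viability is the per-plate percentage relative to DMSO wells, with cell-free wells as background.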

[1] = HPLM + 10% dialyzed FBS, 0.000781 µM
[2] = HPLM + 10% dialyzed FBS, 0.00234 µM
[3] = HPLM + 10% dialyzed FBS, 0.00702 µM
[4] = HPLM + 10% dialyzed FBS, 0.0211 µM
[5] = HPLM + 10% dialyzed FBS, 0.0632 µM
[6] = HPLM + 10% dialyzed FBS, 0.19 µM
[7] = HPLM + 10% dialyzed FBS, 0.569 µM
[8] = HPLM + 10% dialyzed FBS, 1.71 µM
[9] = HPLM + 10% dialyzed FBS, 5.12 µM
[10] = HPLM + 10% dialyzed FBS, 15.4 µM
[11] = HPLM + 10% dialyzed FBS, 46.1 µM
[12] = RPMI 5 mM glucose + 10% FBS, 0.000781 µM
[13] = RPMI 5 mM glucose + 10% FBS, 0.00234 µM
[14] = RPMI 5 mM glucose + 10% FBS, 0.00702 µM
[15] = RPMI 5 mM glucose + 10% FBS, 0.0211 µM
[16] = RPMI 5 mM glucose + 10% FBS, 0.0632 µM
[17] = RPMI 5 mM glucose + 10% FBS, 0.19 µM
[18] = RPMI 5 mM glucose + 10% FBS, 0.569 µM
[19] = RPMI 5 mM glucose + 10% FBS, 1.71 µM
[20] = RPMI 5 mM glucose + 10% FBS, 5.12 µM
[21] = RPMI 5 mM glucose + 10% FBS, 15.4 µM
[22] = RPMI 5 mM glucose + 10% FBS, 46.1 µM
[23] = RPMI 5 mM glucose + 10% dialyzed FBS, 0.000781 µM
[24] = RPMI 5 mM glucose + 10% dialyzed FBS, 0.00234 µM
[25] = RPMI 5 mM glucose + 10% dialyzed FBS, 0.00702 µM
[26] = RPMI 5 mM glucose + 10% dialyzed FBS, 0.0211 µM
[27] = RPMI 5 mM glucose + 10% dialyzed FBS, 0.0632 µM
[28] = RPMI 5 mM glucose + 10% dialyzed FBS, 0.19 µM
[29] = RPMI 5 mM glucose + 10% dialyzed FBS, 0.569 µM
[30] = RPMI 5 mM glucose + 10% dialyzed FBS, 1.71 µM
[31] = RPMI 5 mM glucose + 10% dialyzed FBS, 5.12 µM
[32] = RPMI 5 mM glucose + 10% dialyzed FBS, 15.4 µM
[33] = RPMI 5 mM glucose + 10% dialyzed FBS, 46.1 µM

Structure (SMILES)	cell viability [1]	cell viability [2]	cell viability [3]	cell viability [4]	cell viability [5]	cell viability [6]	cell viability [7]	cell viability [8]	cell viability [9]	cell viability [10]	cell viability [11]	cell viability [12]	cell viability [13]	cell viability [14]	cell viability [15]	cell viability [16]	cell viability [17]	cell viability [18]	cell viability [19]	cell viability [20]	cell viability [21]	cell viability [22]	cell viability [23]	cell viability [24]	cell viability [25]	cell viability [26]	cell viability [27]	cell viability [28]	cell viability [29]	cell viability [30]	cell viability [31]	cell viability [32]	cell viability [33]
CCOC(=O)O[C@]1(C(=O)OCCl)CC[C@H]2[C@@H]3CCC4=CC(=O)C=C[C@]4(C)[C@H]3[C@@H](O)C[C@@]21C	97.6%	102%	99.3%	107%	105%	118%	101%	104%	86.1%	101%	102%	95.9%	95.8%	95.7%	95%	110%	102%	111%	100%	76%	97.1%	88.5%	89%	93.3%	94.6%	98.3%	99.3%	91.1%	98.4%	102%	83.4%	98.5%	90.3%
CCCCCN(CCC12CC3CC(CC(C3)C1)C2)C(=O)NCCCc1ccncc1	113%	112%	110%	114%	115%	104%	109%	108%	104%	97.1%	97.8%	101%	109%	112%	107%	107%	105%	111%	106%	109%	92.7%	99.1%	115%	110%	109%	118%	114%	114%	109%	113%	105%	101%	98.9%
CC(C)(C)OC(=O)Nc1ccc(-c2cc(C(=O)NCCCCCCC(=O)NO)no2)cc1	90.9%	94.6%	92.3%	95.2%	93.3%	92.5%	92.8%	45.8%	40.7%	4.57%	4.67%	87.8%	85.6%	87%	88.1%	80.1%	80%	84.8%	32.5%	35.3%	3.1%	3.16%	88.4%	90.5%	83.7%	86.6%	82.6%	85.4%	83%	9.73%	7.46%	3.76%	3.52%
Cc1c(C(=O)c2cccc3ccccc23)c2cccc3c2n1[C@H](CN1CCOCC1)CO3	98.5%	93.4%	93.5%	97%	89.5%	90.2%	91.4%	91.9%	80.8%	82%	26.2%	83.1%	76.7%	81.9%	78.4%	87.8%	77.5%	80.1%	84.5%	76.3%	74.7%	12.9%	86%	92.5%	85.4%	82.6%	94.2%	86.9%	90.2%	84.6%	81%	78.6%	28.5%
NC(CO)C(=O)NNCc1ccc(O)c(O)c1O (stereo unspecified)	103%	93.7%	99.7%	103%	103%	100%	87.9%	90.7%	90.9%	92.2%	54%	96.5%	100%	99.6%	91%	105%	99.5%	91.7%	92.8%	93.6%	81%	19.1%	99.9%	89%	94%	98.3%	96.5%	93.7%	88.6%	94.2%	85.3%	91.4%	26.5%
CC(C)(C)C1=CC(=C(NC(=O)C/2=C/NC3=C(C=CC=C3)C2=O)C=C1O)C(C)(C)C	123%	113%	124%	120%	121%	124%	120%	118%	118%	114%	112%	124%	139%	124%	133%	119%	124%	131%	115%	117%	116%	112%	–	–	–	–	–	–	–	–	–	–	–
CC(S)C(=O)NCC(=O)O (stereo unspecified)	106%	110%	118%	109%	119%	101%	129%	117%	118%	113%	106%	109%	112%	108%	119%	116%	115%	114%	126%	115%	109%	106%	108%	105%	111%	118%	112%	112%	113%	113%	113%	120%	102%
C[N]1C=C(C=N1)C2=CC=C3N=CC\4=C(N(C(=O)\C=C4)C5=CC6=C(CCN6C(=O)C=C)C=C5)C3=C2	106%	121%	109%	114%	112%	115%	105%	95.4%	79.9%	20.8%	20.4%	123%	112%	118%	114%	110%	113%	111%	98%	74.6%	7.13%	5.07%	116%	128%	117%	120%	115%	126%	119%	98.4%	82.2%	6.85%	4.97%
CCOC(=O)N[C@@H]1CC[C@@H]2[C@@H](C1)C[C@H]1C(=O)O[C@H](C)[C@H]1[C@H]2/C=C/c1ccc(-c2cccc(F)c2)cn1	113%	114%	115%	114%	114%	117%	113%	120%	120%	115%	98.5%	–	–	–	–	–	–	–	–	–	–	–	114%	116%	124%	122%	123%	120%	123%	122%	120%	119%	68.4%
CCOC(=O)[C@H]1O[C@@H]1C(=O)N[C@@H](CC(C)C)C(=O)NCCC(C)C	123%	114%	121%	127%	123%	123%	117%	116%	117%	108%	106%	128%	121%	119%	118%	124%	115%	127%	116%	115%	106%	92.9%	116%	119%	115%	121%	124%	119%	122%	119%	118%	109%	102%
CC(C)Cn1cnc2c(N)nc3ccccc3c21	124%	113%	107%	116%	115%	112%	113%	106%	87.6%	75.1%	89.9%	113%	123%	116%	119%	111%	115%	110%	107%	106%	106%	85.1%	111%	111%	109%	115%	115%	112%	105%	107%	104%	102%	81%
N#C/C(=C1/Nc2ccccc2S1)c1ccnc(OCc2ccc(CN3CCOCC3)cc2)n1	106%	105%	110%	112%	110%	119%	109%	110%	105%	40.1%	37.1%	103%	105%	116%	109%	111%	109%	118%	109%	102%	28.8%	33.1%	101%	106%	106%	93.1%	105%	104%	108%	107%	102%	44.5%	38.6%
COc1cc2ncnc(Nc3cccc(Cl)c3)c2cc1OC	112%	107%	97.3%	99.6%	89.2%	73%	68.3%	44.8%	46.1%	45.4%	3.51%	97.7%	99.1%	98.5%	107%	87.9%	66.8%	69.1%	32.7%	25.1%	22.9%	19%	111%	102%	109%	106%	90.8%	72.1%	69.4%	32%	25.1%	23%	15.7%
CC(C)n1cnc2c(NCCc3ccc(O)cc3)nc(-c3csc4ccccc34)nc21	105%	111%	109%	114%	119%	115%	107%	117%	24.9%	6.01%	2.93%	106%	108%	116%	107%	116%	112%	116%	129%	125%	53.5%	3.44%	98.3%	109%	112%	112%	119%	114%	118%	119%	130%	38.6%	2.43%
C[C@H](NCc1ccc(OCc2cccc(F)c2)cc1)C(N)=O	95.1%	110%	107%	123%	116%	122%	114%	115%	104%	98%	17.8%	99.9%	105%	112%	119%	124%	126%	134%	109%	103%	87.4%	32.9%	96%	118%	109%	114%	108%	116%	117%	114%	102%	80.5%	33.4%
COC(=O)Nc1nc2ccc([S+]([O-])c3ccccc3)cc2[nH]1 (stereo unspecified)	109%	119%	111%	114%	111%	116%	122%	119%	95.5%	55.5%	86%	100%	115%	103%	119%	118%	120%	115%	135%	110%	74.4%	92.4%	118%	120%	117%	118%	124%	118%	128%	122%	117%	95%	97.4%
